Assay results published in the supplement of paper PMC10307832.

How the values were obtained:
Assay in all cases: relative viability (nuclei count vs DMSO), 5 days (fraction); higher = more cells survive
[1] = compound: C1=CC=C2C(=C1)N=C(S2)C(C#N)C3=NC(=NC=C3)NCCC4=CN=CC=C4 + Nc1ncn([C@H]2C[C@H](O)[C@@H](CO)O2)c(=O)n1 [Decitabine] (partner 2 µM)
Method in brief: (§1)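 Dosing by pin tool came one day after lung cancer cell lines were seeded in 1536-well plates, using either one drug or a fixed anchor-drug dose plus five library-drug doses (not always all listed) in √10 steps. After 5 days, nuclei were counted on 4× images. Relative viability is treated-well nuclei count divided by vehicle-well nuclei count, and values are medians of duplicate plates.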

[2] = compound: C1=CC=C2C(=C1)N=C(S2)C(C#N)C3=NC(=NC=C3)NCCC4=CN=CC=C4 + O=C(c1cc(Cc2n[nH]c(=O)c3ccccc23)ccc1F)N1CCN(C(=O)C2CC2)CC1 [Olaparib] (partner 8 µM)
Method in brief: as §1

NVP-TAE684 + Alpelisib = compound: COc1cc(N2CCC(N3CCN(C)CC3)CC2)ccc1Nc1ncc(Cl)c(Nc2ccccc2S(=O)(=O)C(C)C)n1 [NVP-TAE684] + Cc1nc(NC(=O)N2CCC[C@H]2C(N)=O)sc1-c1ccnc(C(C)(C)C(F)(F)F)c1 [Alpelisib] (partner 2 µM)
Method in brief: as §1

Vandetanib + OSI-027 = compound: COc1cc2/c(=N/c3ccc(Br)cc3F)nc[nH]c2cc1OCC1CCN(C)CC1 [Vandetanib] + COc1cccc2cc(-c3nc([C@H]4CC[C@H](C(=O)O)CC4)n4ncnc(N)c34)[nH]c12 [OSI-027] (partner 0.5 µM)
Method in brief: as §1

Cell Line	relative viability ([1]; first compound 0.005 µM)	relative viability ([1]; first compound 0.01581 µM)	relative viability ([1]; first compound 0.05 µM)	relative viability ([1]; first compound 0.1581 µM)	relative viability ([1]; first compound 0.5 µM)	relative viability ([2]; first compound 0.005 µM)	relative viability ([2]; first compound 0.01581 µM)	relative viability ([2]; first compound 0.05 µM)	relative viability ([2]; first compound 0.1581 µM)	relative viability ([2]; first compound 0.5 µM)	relative viability (NVP-TAE684 + Alpelisib; first compound 0.2 µM)	relative viability (NVP-TAE684 + Alpelisib; first compound 0.6325 µM)	relative viability (NVP-TAE684 + Alpelisib; first compound 2 µM)	relative viability (Vandetanib + OSI-027; first compound 0.02 µM)	relative viability (Vandetanib + OSI-027; first compound 0.06325 µM)	relative viability (Vandetanib + OSI-027; first compound 0.2 µM)	relative viability (Vandetanib + OSI-027; first compound 0.6325 µM)	relative viability (Vandetanib + OSI-027; first compound 2 µM)
NCI-H358	0.234	0.21	0.221	0.216	0.206	0.413	0.658	0.653	0.698	0.419	0.751	0.478	0.203	0.706	0.569	0.678	0.504	0.307
NCI-H441	0.267	0.303	0.252	0.246	0.239	0.423	0.643	0.544	0.683	0.455	0.835	0.965	0.503	0.551	0.619	0.713	0.643	0.566
NCI-H460	–	0.612	0.529	0.592	0.464	0.4	0.502	0.43	0.516	0.333	0.607	0.412	0.113	0.604	0.611	0.615	0.583	0.586
NCI-H520	0.46	0.449	0.482	0.616	0.513	0.302	0.307	0.309	0.321	0.29	1.17	1.16	0.354	0.219	0.226	0.311	0.268	0.271
NCI-H596	0.711	1	1	0.919	0.985	0.599	0.59	0.608	0.632	0.643	0.526	0.517	0.375	0.751	0.674	0.665	0.726	0.74
NCI-H647	0.356	0.442	0.33	0.353	0.284	0.423	0.536	0.583	0.572	0.3	1.32	1.1	0.377	0.572	0.554	0.73	0.596	0.674
NCI-H650	0.316	0.356	0.319	0.338	0.325	0.412	0.369	0.441	0.345	0.363	1.06	0.961	0.571	0.491	0.531	–	0.521	0.447
NCI-H661	0.467	0.52	0.529	0.622	0.589	0.543	0.8	0.723	0.801	0.613	0.808	–	0.596	0.721	0.66	0.668	0.58	0.629
NCI-H727	0.992	0.879	0.983	1	0.786	0.734	0.622	0.806	0.746	0.679	0.591	0.409	0.275	0.533	0.551	0.536	0.545	0.446
NCI-H838	0.435	0.461	0.425	0.47	0.445	0.622	0.829	0.731	0.773	0.546	1.06	0.97	0.537	0.409	0.379	0.37	0.333	0.424
NCI-H1355	0.367	0.376	0.381	0.358	0.366	0.704	0.761	0.764	0.825	0.769	0.721	0.928	0.473	0.446	0.362	0.386	0.5	0.387
NCI-H1395	0.721	–	0.732	0.769	0.742	0.476	–	0.475	0.457	0.541	1.2	1.19	0.739	0.614	0.65	0.665	0.526	0.588
NCI-H1437	0.484	0.6	0.508	0.602	0.548	0.542	0.607	0.65	0.673	0.507	1	1	0.516	0.835	0.899	0.868	0.886	0.964
NCI-H1651	0.546	0.557	0.684	0.711	0.603	0.178	0.17	0.172	0.182	0.163	–	1.02	0.994	0.595	0.703	0.667	0.616	0.628
NCI-H1666	0.72	0.696	0.8	0.738	0.798	0.754	0.761	0.764	0.767	0.681	–	0.837	0.524	0.858	0.765	0.836	0.788	0.751
NCI-H1734	0.453	0.49	0.522	0.495	0.488	0.509	0.616	0.664	0.633	0.614	0.768	0.916	0.468	0.576	0.605	0.543	0.611	0.652
NCI-H1755	0.673	0.789	0.683	0.75	0.7	0.914	0.994	0.881	1.06	0.943	0.692	1	0.771	0.688	0.649	0.757	0.689	0.672
NCI-H1792	–	0.736	0.638	0.675	0.388	–	0.709	0.427	0.38	0.215	0.647	0.718	0.684	0.761	0.715	0.784	0.751	0.63
